Assay results: patent publication US11866431B2, “Bicyclic compounds” (Vivace Therapeutics, Inc., priority 2018, dated 2024)

Test system: 8XTBD luciferase reporter (YAP reporter) in HEK293T cells
Experiment: YAP Reporter Assay
Assay type: cell-based
Conditions: Homo sapiens, HEK-293T; HEK293T cells stably transfected with 8XTBD luciferase reporter and pRLTK; 24-hr incubation; top concentration 3 μM; read-out: Firefly Luciferase IC50
Method: HEK293T cells stably transfected with 8XTBD luciferase reporter and pRLTK in 384-well plates were treated with the test compounds, starting from 3 μM (final concentration in assay plate), 1:3 dilution, and 10 points in quadruplicates. Post 24-hr incubation with compounds at 37° C. and 5% CO2, cells were lysed and 8XTBD-driven firefly luciferase and control TK-driven renilla luciferase activities were measured using Promega Dual-Luciferase Reporter Assay System.
Reagents: The reagents used for this study are: DMEM: Invitrogen #11960077, Dual-Glo Luciferase Assay System: Promega-E2980, Puromycin Dihydrochloride: Invitrogen-A1113803, 384-well plate: PerkinElmer-6007480, L-GLUTAMINE: Invitrogen-25030164, Hygromycin B: Invitrogen-10687010, and Penicillin-Streptomycin: Merk-TMS-AB2-C
Media: The media used for this assay were: Culture Medium: DMEM+1 ug/mL puromycin+200 ug/mL hygromycin (with 10% FBS+1 mM L-glutamine); and Assay Medium: DMEM (with 10% FBS+1 mM L-glutamine+1×P/S).
Cell Plating: The appropriate media was warmed at 37° C. by water bath: Culture Medium, Assay Medium, 1*D-PBS, 0.05% trypsin-EDTA. The cells were trypsinized after removing all media, then washed with 1*sterile D-PBS and then with 2 ml 0.05% trypsin-EDTA. The cells were then incubated at RT for one minute. Then 10 ml/75 cm2 flask Assay Medium was added to each flask. Using a 10 ml pipette, the cells were then gently resuspended in the media, until the clumps completely disappeared. The cells were then transferred into 50 ml centrifuge tubes and were centrifuged at 800 rpm for 5 mins. The medium was removed and the cells were resuspended with Assay Medium. An aliquot of cells was used to count the cell density (cells/ml). The cell suspension was then diluted with Assay Medium to a concentration of 6×10^4 cells/ml. 50 ul cells suspension was then plated to 384-well plate (PerkinElmer-6007480), 3×10^3 cells/well and the cells were incubated in an incubator at 37° C. 5% CO2.
Compound Treatment: In the afternoon (incubation of the plate with 3-4 hrs), the test compounds were added by Echo, starting from 3 uM (final concentration in the assay plate), 1:3 dilution, 10 points, quadruplicates. The plate was placed at 37° C. 5% CO2 incubator for 24 hrs.
Detection: The Dual-Glo Luciferase Reagent was prepared by transferring the contents of one bottle of Dual-Glo Luciferase Buffer to one bottle of Dual-Glo Luciferase Substrate to create the Dual-Glo Luciferase Reagent. Mixing was performed by inversion until the substrate was thoroughly dissolved. After mixing, the reagent was aliquoted into 15 ml tubes. In the afternoon (24 hrs post compound treatment), the DMEM+ medium in the 384 well plates were aspirated by Microplate Washer.
Measuring firefly luciferase activity: 20 ul Dual-Glo Luciferase Reagent was added to the 384-well plates. The plates were protected from light to prevent interference with the assay. The plates were shaken for 1 min followed centrifuging plates at 1000 rpm for 30 seconds. After waiting at least 10 minutes, the firefly luminescence was measured by Envision.
Measuring renilla luciferase activity: 20 ul Stop-Glo Reagent was added to the 384-well plates. The plates were shaken for 1 min and then centrifuged at 1000 rpm for 30 seconds. After waiting at least 10 minutes, the renilla luminescence was measured by Envision.
Compound IC50 and maximum inhibition on the firefly luciferase and renilla luciferase activities were reported separately.

Structure (SMILES)	IC50
O=C(NCCC=CCO)c1ccc2c(-c3ccc(C(F)(F)F)cc3)cccc2c1 (stereo in doubt) [Compound 245, N-[(E)-5-hydroxypent-3-enyl]-5-[4-(trifluoromethyl)phenyl]naphthalene-2-carboxamide]	100 to 1000 nM
CC(C)NC(=O)c1ccc2c(-c3ccc(C(F)(F)F)cc3)cccc2c1 [Compound 1, N-isopropyl-5-(4-(trifluoromethyl)phenyl)-2-naphthamide]	< 100 nM
CS(=O)(=O)NC(=O)c1ccc2c(-c3ccc(C(F)(F)F)cc3)cccc2c1 [Compound 2, N-(methylsulfonyl)-5-(4-(trifluoromethyl)phenyl)-2-naphthamide]	< 100 nM
CNS(=O)(=O)c1ccc2c(-c3ccc(C(F)(F)F)cc3)cccc2c1 [Compound 3, N-methyl-5-(4-(trifluoromethyl)phenyl)naphthalene-2-sulfonamide]	< 100 nM
CC(C)NC(=O)c1cnc2c(-c3ccc(C(F)(F)F)cc3)cccc2c1 [Compound 4, N-isopropyl-8-(4-(trifluoromethyl)phenyl)quinoline-3-carboxamide]	< 100 nM
CCNS(=O)(=O)c1ccc2c(-c3ccc(C(F)(F)F)cc3)cccc2c1 [Compound 5, N-ethyl-5-(4-(trifluoromethyl)phenyl)naphthalene-2-sulfonamide]	< 100 nM
CC(C)NS(=O)(=O)c1ccc2c(-c3ccc(C(F)(F)F)cc3)cccc2c1 [Compound 6, N-isopropyl-5-(4-(trifluoromethyl)phenyl)naphthalene-2-sulfonamide]	100 to 1000 nM
CC(C)NC(=O)c1ccc2c(-c3ccc(C(F)(F)F)cc3)ccnc2c1 [Compound 7, N-isopropyl-4-[4-(trifluoromethyl)phenyl]quinoline-7-carboxamide]	100 to 1000 nM
CC(C)NC(=O)c1ccc2c(-c3ccc(C(F)(F)F)cc3)ccc(Br)c2c1 [Compound 8, 8-bromo-N-isopropyl-5-(4-(trifluoromethyl)phenyl)-2-naphthamide]	< 100 nM
COC(=O)c1ccc2c(-c3ccc(C(F)(F)F)cc3)nccc2c1 [Compound 9, Methyl 1-[4-(trifluoromethyl)phenyl]isoquinoline-6-carboxylate]	100 to 1000 nM
COC(=O)c1ccc2c(-c3ccc(C(F)(F)F)cc3)cnc(Cl)c2c1 [Compound 10, Methyl 1-chloro-4-[4-(trifluoromethyl)phenyl]isoquinoline-7-carboxylate]	1000 to 3000 nM
CC(C)NC(=O)c1ccc2c(-c3ccc(C(F)(F)F)cc3)nccc2c1 [Compound 11, N-isopropyl-1-[4-(trifluoromethyl)phenyl]isoquinoline-6-carboxamide]	< 100 nM
CC(C)NC(=O)c1ccc2c(-c3ccc(C(F)(F)F)cc3)ccc(NC(=O)OC(C)(C)C)c2c1 [Compound 12, Tert-Butyl (7-(isopropylcarbamoyl)-4-(4-(trifluoromethyl)phenyl)naphthalen-1-yl)carbamate]	100 to 1000 nM
CC(C)NC(=O)c1ccc2c(-c3ccc(C(F)(F)F)cc3)ccc(Cl)c2c1 [Compound 13, 8-chloro-N-isopropyl-5-(4-(trifluoromethyl)phenyl)-2-naphthamide]	< 100 nM
COC(=O)c1ccc2c(-c3ccc(C(F)(F)F)cc3)cnc(O)c2c1 [Compound 14, Methyl 1-oxo-4-[4-(trifluoromethyl)phenyl]-2H-isoquinoline-7-carboxylate]	< 100 nM
COC(=O)c1ccc2c(-c3ccc(C(F)(F)F)cc3)cn(C)c(=O)c2c1 [Compound 15, Methyl 2-methyl-1-oxo-4-[4-(trifluoromethyl)phenyl]isoquinoline-7-carboxylate]	100 to 1000 nM
CC(C)NC(=O)c1ccc2c(-c3ccc(C(F)(F)F)cc3)ccc(N)c2c1 [Compound 16, 8-amino-N-isopropyl-5-(4-(trifluoromethyl)phenyl)-2-naphthamide]	< 100 nM

Structure (SMILES)	IC50
CC(=O)Nc1ccc(-c2ccc(C(F)(F)F)cc2)c2ccc(C(=O)NC(C)C)cc12 [Compound 17, 8-acetamido-N-isopropyl-5-(4-(trifluoromethyl)phenyl)-2-naphthamide]	< 100 nM
CSc1ccc(-c2ccc(C(F)(F)F)cc2)c2ccc(C(=O)NC(C)C)cc12 [Compound 18, N-isopropyl-8-methylsulfanyl-5-[4-(trifluoromethyl)phenyl]naphthalene-2-carboxamide]	< 100 nM
Cc1ccc(-c2ccc(C(F)(F)F)cc2)c2ccc(C(=O)NC(C)C)cc12 [Compound 19, N-isopropyl-8-methyl-5-[4-(trifluoromethyl)phenyl]naphthalene-2-carboxamide]	< 100 nM
C#Cc1ccc(-c2ccc(C(F)(F)F)cc2)c2ccc(C(=O)NC(C)C)cc12 [Compound 20, 8-ethynyl-N-isopropyl-5-[4-(trifluoromethyl)phenyl]naphthalene-2-carboxamide]	< 100 nM
CCc1ccc(-c2ccc(C(F)(F)F)cc2)c2ccc(C(=O)NC(C)C)cc12 [Compound 21, 8-ethyl-N-isopropyl-5-[4-(trifluoromethyl)phenyl]naphthalene-2-carboxamide]	< 100 nM
CC(C)NC(=O)c1ccc2c(-c3ccc(C(F)(F)F)cc3)ccc(C3CC3)c2c1 [Compound 22, 8-cyclopropyl-N-isopropyl-5-(4-(trifluoromethyl)phenyl)-2-naphthamide]	< 100 nM
CC(C)NC(=O)c1ccc2c(-c3ccc(C(F)(F)F)cc3)ccc(NS(C)(=O)=O)c2c1 [Compound 23, N-isopropyl-8-(methylsulfonamido)-5-(4-(trifluoromethyl)phenyl)-2-naphthamide]	< 100 nM
COC(=O)c1ccc2c(-c3ccc(C(F)(F)F)cc3)cncc2c1 [Compound 24, Methyl 4-[4-(trifluoromethyl)phenyl]isoquinoline-7-carboxylate]	< 100 nM
CC(C)NC(=O)c1ccc2c(-c3ccc(C(F)(F)F)cc3)cncc2c1 [Compound 25, N-isopropyl-4-[4-(trifluoromethyl)phenyl]isoquinoline-7-carboxamide]	100 to 1000 nM
CC(C)NC(=O)c1ccc2c(-c3ccc(C(F)(F)F)cc3)cn(C)c(=O)c2c1 [Compound 26, N-isopropyl-2-methyl-1-oxo-4-(4-(trifluoromethyl)phenyl)-1,2-dihydroisoquinoline-7-carboxamide]	< 100 nM
CC(C)NC(=O)c1ccc2c(-c3ccc(C(F)(F)F)cc3)ccc([S+](C)[O-])c2c1 (stereo not shown) [Compound 27, N-isopropyl-8-methylsulfinyl-5-[4-(trifluoromethyl)phenyl]naphthalene-2-carboxamide]	100 to 1000 nM
CC(C)NC(=O)c1ccc2c(-c3ccc(C(F)(F)F)cc3)ccc(S(C)(=O)=O)c2c1 [Compound 28, N-isopropyl-8-methylsulfonyl-5-[4-(trifluoromethyl)phenyl]naphthalene-2-carboxamide]	1000 to 3000 nM
NS(=O)(=O)NC(=O)c1ccc2c(-c3ccc(C(F)(F)F)cc3)cccc2c1 [Compound 29, N-sulfamoyl-5-(4-(trifluoromethyl)phenyl)-2-naphthamide]	100 to 1000 nM
CC(=O)N(C)c1ccc(-c2ccc(C(F)(F)F)cc2)c2ccc(C(=O)NC(C)C)cc12 [Compound 30, N-isopropyl-8-(N-methylacetamido)-5-(4-(trifluoromethyl)phenyl)-2-naphthamide]	100 to 1000 nM
CC(C)NC(=O)c1ccc2c(-c3ccc(C(F)(F)F)cc3)cc(Br)c(N)c2c1 [Compound 31, 8-amino-7-bromo-N-isopropyl-5-(4-(trifluoromethyl)phenyl)-2-naphthamide]	< 100 nM
CC(C)NC(=O)c1ccc2c(-c3ccc(C(F)(F)F)cc3)cc(Br)cc2c1 [Compound 32, 7-bromo-N-isopropyl-5-[4-(trifluoromethyl)phenyl]naphthalene-2-carboxamide]	< 100 nM
CC(C)NC(=O)c1ccc2c(-c3ccc(C(F)(F)F)cc3)cc(Cl)c(N)c2c1 [Compound 33, 8-amino-7-chloro-N-isopropyl-5-(4-(trifluoromethyl)phenyl)-2-naphthamide]	< 100 nM
